Source: patent publication US11975041B2, “Composition comprising CHP (cyclo-his pro) for preventing, improving or treating of bone loss related disease” (NovMetaPharma Co., Ltd., priority 2017, dated 2024)
Entries after “also recorded” stand apart in the source; their conditions may differ.

Columns and labels:
[1] = system: ovariectomized animal model; assay: Osteoporosis alleviation in ovariectomized animal model, Micro CT of femur; format: in vivo, SD female mice
Protocol: To determine the effect of alleviating osteoporosis in an ovariectomized animal model according to administration of CHP, a zinc salt, or a mixture thereof, 20-week-old SD female mice (SLC/Central Experimental Animal Co. Ltd., Seoul, Korea) were purchased and raised under certain conditions (temperature: 22±2° C., relative humidity: 55±10%, light/dark cycle: 12 hours). 7 mice/group were allowed to freely drink water and eat food in a cage, subjected to an adaptation period of 1 week before the experiment, and used in the experiment.
After 6 weeks of the administration of CHP, a zinc salt, or a mixture thereof, the effect of alleviating osteoporosis in an ovariectomized animal model was analyzed using Micro CT. The bone mineral density of ovariectomized animals was measured by bone CT scanning of the 3 mm range at the front side of a 2 mm femoral growth plate using micro-CT (QuantumFX, Perkin Elmer, Massachusetts, USA). In addition, a bone volume fraction (BV/TV, %) was measured. The measurement results of the bone mineral density of the femur are illustrated in FIG. 1, and the bone volume fraction is illustrated in FIG. 2.

MC3T3-E1 cells = assay: Alkaline phosphatase (ALP) activity / osteogenic differentiation of MC3T3-E1 osteoblasts; format: cell-based
Protocol: MC3T3-E1 cells were incubated in MEMα, an ascorbic acid-free medium containing 10% FBS and 1% penicillin/streptomycin, in a 5% CO2 incubator at 37° C. To induce osteogenic differentiation, 10 mM β-glycerophosphate and […] of ascorbic acid was further added to the basal medium composition.
500 μl of 1×10^5 MC3T3-E1 cells were seeded into a 24-well plate and cultured for 24 hours until they reached 100% confluency. […] At this time, in the undifferentiated group, which is a negative control for differentiation, a basal medium was used instead of the differentiation medium. In the positive control treated with hPTH1-34, the medium was replaced with a differentiation medium 6 hours after the treatment. While the medium was replaced every 48 hours, each concentration of CHP and hPTH1-34 was treated for a total of 14 days.
On day 14 of differentiation, the medium was removed, followed by washing once with PBS and fixing in 4% paraformaldehyde (PFA) at room temperature for 5 minutes. 500 μl of a 1-STEP™ NBCT/BCIP solution was added to allow a reaction to occur at room temperature for 1 hour. The reaction product was washed with distilled water, and then dried at room temperature, and the degree of coloring of the cells was observed using a microscope. Subsequently, DMSO was added to each well, followed by shaking, and then absorbance at 525 nm was measured.

Question: For `O=C1N[C@@H](Cc2cnc[nH]2)C(=O)N2CCC[C@@H]12` [CHP, cyclo-hispro], which “bone mineral density of the femur” value ([1]; 1 mg/L of CHP in drinking water, 6 weeks, micro-CT, compared to the ovariectomized group (FIG. 1)) is on record?
Answer: The value was “significant increase”.

Question: What about the “bone volume fraction (BV/TV)” value ([1]; 1 mg/L of CHP in drinking water, 6 weeks, micro-CT, compared with positive control risedronate (FIG. 2)) of the same molecule?
Answer: The value was “restored to a level similar to that of the positive control”.

Question: What about the “effect on bone mineral density and bone volume fraction relative to zinc salt and zinc salt + CHP mixture groups” value ([1]; CHP alone vs zinc salt-administered group and combined administration group) of the same molecule?
Answer: Its value is “significantly stronger”.

Question: And the “bone mineral density of a femur” value ([1]; CHP alone, ovariectomized animal model, dose not stated (FIG. 1))?
Answer: The value was “significantly increased”.

Question: What about the “bone volume fraction of a femur” value ([1]; CHP alone, ovariectomized animal model, dose not stated (FIG. 2)) of the same molecule?
Answer: Its value is “significantly increased”.

Question: What about the “ALP activity (absorbance at 525 nm)” value (MC3T3-E1 cells; 2 mM CHP, day 14, compared with positive control hPTH1-34 10 nM (FIG. 4)) of the same molecule?
Answer: The value was “level similar to that of the positive control; also recorded: same or similar to that of a positive control”.

Question: And the “osteogenic differentiation (degree of coloring, ALP staining)” value (MC3T3-E1 cells; 0.5, 1, 2 mM CHP, day 14 of differentiation, compared to negative control (FIG. 3))?
Answer: The value was “remarkably increased degree of coloring; also recorded: osteogenic differentiation and bone modeling were promoted”.
